Values quoted from earlier work as cited in US20240408074A1, “METHODS FOR THE TREATMENT AND PREVENTION OF NON-VIRAL TICK-BORNE DISEASES AND SYMPTOMS THEREOF OF” (60 DEGREES PHARMACEUTICALS LLC, priority 2023, published 2024).

How the values were obtained:
P. falciparum [1] = conditions: 250 mg/day, cited from earlier work
[2] = test system: Trypanosome brucei blood stage forms; conditions: exposure for 90 minutes; cited from earlier work
Babesia parasites = conditions: 2 h; formation of large vacuoles; cited from earlier work
Leptospira = conditions: exposure for as little as 30 min; cited from earlier work
[3] = test system: P. falciparum gametocytes; conditions: Example 5; single dose of primaquine combined with dihydroartemisinin/piperaquine, or dihydroartemisinin-piperaquine alone; cited from earlier work
[4] = 600 mg over three days then 200 mg weekly for up to one year; reversible, not clinically significant; cited from earlier work
Leishmania major = conditions: intracellular amastigote forms; cited from earlier work
B. microti = conditions: one patient; prior rituximab; tafenoquine at approved malaria prevention dose as monotherapy for six weeks; cited from earlier work
Plasmodium vivax = conditions: 400 mg/day for three days, cited from earlier work
P. falciparum [5] = conditions: in vivo; cited from earlier work
[6] = test system: free-living gram-negative bacteria and free-living gram-positive bacteria; conditions: gram-negative versus gram-positive; cited from earlier work
B. rodhaini = conditions: cited from earlier work
Trypanosoma brucei = conditions: extracellular blood stage forms; cited from earlier work
Plasmodium falciparum = conditions: 600 mg loading dose then 200 mg; parasite load three days after last dose; all control subjects developed parasitemia; cited from earlier work
[7] = immunocompromised SCID mice, single dose of 20 mg/kg

CC[C@H]1OC(=O)[C@H](C)[C@@H](O[C@H]2C[C@@](C)(OC)[C@@H](O)[C@H](C)O2)[C@H](C)[C@@H](O[C@@H]2O[C@H](C)C[C@H](N(C)C)[C@H]2O)[C@](C)(O)C[C@@H](C)CN(C)[C@H](C)[C@@H](O)[C@]1(C)O [Azithromycin]
Protective Efficacy (%) Relative to Placebo, PF/Non-immune or Malaria-naïve (P. falciparum [1]; non-immune or malaria-naïve (Taylor)): 72% (Taylor)
Protective Efficacy (%) Relative to Placebo, Pf/Semi-Immune (P. falciparum [1]; semi-immune (Anderson)): 83% (Anderson)

OO [hydrogen peroxide]
concentration that kills blood stage forms [2]: approximately 140 microM
concentration that kills Babesia parasites in vitro (Babesia parasites): 100 µM
concentration that killed various serovars (Leptospira): < 180 µM

COc1cc(NC(C)CCCN)c2ncccc2c1 (stereo not shown) [primaquine]
time until gametocytes non-infectious to mosquitoes at a level statistically lower than reference values [3]: two days post-dosing

COc1cc(C)c2c(Oc3cccc(C(F)(F)F)c3)c(OC)cc(NC(C)CCCN)c2n1 (stereo not shown) [tafenoquine, N(4)-[2,6-Dimethoxy-4-methyl-5-[3-(trifluoromethyl)phenoxy]quinolin-8-yl]pentane-1,4-diamine]
specific adverse events with increased risk [4]: gastrointestinal effects [mild to moderate] and cornea verticillata
potency of killing (Leishmania major): < 4 µM
outcome of treatment in the patient (B. microti): cured
day by which all patients cleared blood stage parasites (Plasmodium vivax; monotherapy): ≤ 8 days
relapses during the follow up period (Plasmodium vivax; patients for whom data was available): no relapses
activity against the blood stages of P. falciparum (P. falciparum [5]): quite effective
activity against free-living bacteria [6]: much less active against free-living gram-negative bacteria than free-living gram-positive bacteria
parasitemia (B. rodhaini; Balb/c (immunocompetent) mice, single dose of 20 mg/kg): cleared parasitemia
survival (B. rodhaini; Balb/c (immunocompetent) mice, single dose of 20 mg/kg, infection uniformly lethal in untreated animals): 100%
death (B. rodhaini; [7]): delayed not prevent
parasitemia and relapses (B. rodhaini; [7]): cleared initial parasitemia but did not prevent relapses
vacuole formation in B. rodhaini blood stages (B. rodhaini; mice, single dose of 20 mg/kg): induces the formation of large vacuoles
antioxidant enzymes in B. rodhaini (B. rodhaini; mice, single dose treatment): upregulated
clearance and cure of Babesia (B. rodhaini; one and three doses, immunocompromised mice and dogs): sufficient to clear and cure Babesia
potency of killing (Trypanosoma brucei): < 4 µM
subjects who developed blood stage parasitemia (Plasmodium falciparum): none
